Results from patent US20070004660A1, “Synergistic Modulation of Flt3 Kinase Using Alkylquinolines and Alkylquinazolines” (priority 2005, published 2007).

Tests used:
[1] = molecular target: T1, isolated kinase domain of the human FLT3 receptor (a.a. 571-993) (Homo sapiens, UniProt P36888); experiment: FLT3 fluorescence polarization kinase assay; format: biochemical; details: 150 uM ATP; uncertainty ±10%
T1 construct: human FLT3 receptor (a.a. 571-993)
T1 sequence (P36888 571-993): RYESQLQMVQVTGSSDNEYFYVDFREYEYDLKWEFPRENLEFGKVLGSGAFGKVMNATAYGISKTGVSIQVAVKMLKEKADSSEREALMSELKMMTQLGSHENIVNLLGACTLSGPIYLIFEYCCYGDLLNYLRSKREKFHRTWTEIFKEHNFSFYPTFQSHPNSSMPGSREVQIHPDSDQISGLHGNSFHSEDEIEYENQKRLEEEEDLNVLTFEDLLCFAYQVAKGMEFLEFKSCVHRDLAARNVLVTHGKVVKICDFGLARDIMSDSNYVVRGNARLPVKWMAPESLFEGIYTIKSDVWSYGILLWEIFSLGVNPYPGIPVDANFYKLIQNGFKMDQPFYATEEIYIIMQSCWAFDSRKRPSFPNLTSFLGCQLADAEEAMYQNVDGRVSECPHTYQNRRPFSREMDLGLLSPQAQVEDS

MV4-11 cells = experiment: Inhibition of MV4-11 cell proliferation (CellTiterGlo, 72 h); format: cell-based; details: Homo sapiens; 72 h growth inhibition; uncertainty ±20%

Structure (SMILES)	IC50 [1]	IC50 (MV4-11 cells)
O=C(Nc1ccc(N2CCCC2)cc1)N1CCC(c2ncnc3cc(NCCO)ccc23)CC1 [Example 175, 4-[7-(2-Hydroxy-ethylamino)-quinazolin-4-yl]-piperidine-1-carboxylic acid (4-pyrrolidin-1-yl-phenyl)-amide]	1 nM	18 nM
O=C(Nc1ccc(N2CCCC2)cc1)N1CCC(c2ncnc3cc(N4CCOC4=O)ccc23)CC1 [Example 176, 4-[7-(2-Oxo-oxazolidin-3-yl)-quinazolin-4-yl]-piperidine-1-carboxylic acid (4-pyrrolidin-1-yl-phenyl)-amide]	102 nM	8 nM
